# Where two headings read alike, the source gives them in different places.
# Tests used:
# [1] = physchem; format: physicochemical
# Protocol: The partition coefficient (P) is defined as the ratio of the concentrations (C) to the equilibrium of a dissolved and highly diluted substance in a biphasic system consisting of two almost immiscible solvents.
# In the case of n-octanol and water:
# The partition coefficient P is the quotient of two concentrations, it is generally indicated in its logarithmic form, base 10 (LogP).
# The log P values of different perfume ingredients were measured using standard high performance liquid chromatography method, according to the reference (OECD, guideline No. 117, adopted on 13 Apr. 2004, Partition coefficient (n-octanol-water), High Performance Liquid Chromatography (HPLC) Method).
# [2] = tested on: Escherichia coli ATCC 10536; experiment: Robotic BCT test of perfume ingredients in model surfactant bases; format: cell-based; conditions: for Log reduction (Log CFU/mL) Base 3: Base 3: SLES 1.5%, coco-glucoside 0.75%; for Log reduction (Log CFU/mL) Base 4: Base 4: SLES 2.25%, sodium xylene sulfonate 3%; for log reduction at 0.5 %: Escherichia coli, ATCC10536, 45 s
# Protocol: The surfactant bases tested included 1) sodium lauryl ether sulfate (SLES) and cocamidopropyl betaine (CAPB) at 3:1 mass ratios; 2) SLES, CAPB and coco-glucoside at 2:1:1 mass ratios. Test samples were prepared by mixing perfume ingredients with the surfactant bases and vigorously stirred for 24 hrs. Concentration of perfume ingredients in the bases was 0.5% wt. Samples with transparent appearance were selected for antimicrobial testing.
# Antimicrobial efficacy was tested against a representative Gram-negative bacterial strain, Escherichia coli ATCC 10536, using robotic bacteria contact time (BCT) test based on European standard EN-1276 and EP2787827(B1).
# Preparation of screening plate and dilution plate: Aliquots (270 µl) of compositions were dispensed into the wells of a 96-well microtiter plate (MTP) along two columns (B1-H1, and B7-H7), and 270 µl of MilliQ water was added to well A1 and A7 as the control samples. This MTP was labelled as the “Screening plate”. In another MTP, labelled as the “Dilution plate”, 270 µL of Dey-Engley (D/E) neutralizing solution was added to column 1 and column 7. 270 µl of tryptone diluent solution was added to columns 2-6 and columns 8-12 of the Dilution MTP by a Hamilton robotic liquid handling station.
# BCT test & neutralization & dilution: Bacterial stock (30 µl) was then added to columns 1 of the ‘Screening plate’ and mixed by a Hamilton robotic liquid handling station. After a contact time of 45 seconds, 30 µl of the mixtures in column 1 were transferred into the corresponding wells of column 1 of the ‘Dilution plate’. After neutralizing for 5 minutes in the D/E neutralizing solution, 30 µl of the neutralized mixtures were transferred from column 1 to column 2 of the Dilution MTP and mixed, followed by transferring 30 µl of the mixtures from column 2 into column 3. This process was repeated serially diluting the bacteria suspensions across the plate to column 6. Bacterial stock (30 µl) was then added to columns 7 of the ‘Screening plate’ and mixed by a Hamilton robotic liquid handling station. After a contact time of 45 seconds, 30 µl of the mixtures in column 7 were transferred into the corresponding wells of column 7 of the ‘Dilution plate’. After neutralizing for 5 minutes in the D/E neutralizing solution, 30 µl of the mixtures were transferred from column 7 to column 8 of the Dilution MTP and mixed, followed by transferring further 30 µl mixtures from column 8 into column 9. This process was repeated serially diluting the bacteria suspensions across the plate to column 12.
# Plating: 30 µl volumes from each well in the Dilution MTP were transferred onto four Tryptone Soya Agar (TSA) plates. The TSA plates were allowed to stand for about two hours so that the 30 µl inocula spots could dry and the plates were then inverted and incubated overnight at 37° C. for 24 hours. After incubation, colonies were counted.
# Calculating log reduction: Select the dilutions with colony counts, and calculate the viable cell counts (CFU/mL) of mixture in ‘Screening plate’, and log reduction against the control MilliQ sample was calculated.
# [3] = Equivalent alkane carbon number (EACN) in model microemulsion system; format: physicochemical; conditions: C10E5/water/isopropyl myristate model system, 3% wt perfume ingredient
# Protocol: EACN values provide information on polarity and surface activity of apolar ingredients. Tchakalova and Fieber (J. of Surfactants and Detergents, 2012, 15(2):167-177) classified perfume ingredients based on values of EACNmix, the EACN of a mixture consisting of a test perfume ingredient and a reference oil (isopropyl myristate). The same model system and method were used to measure the EACN values of perfume ingredients with antimicrobial activities. Different perfume ingredients were added to the model microemulsion system shown in Table 1, in which the nonionic pentaethylene glycol mono n-decyl ether (C10E5) was used as surfactant. Phase transition temperatures of the system from Winsor I to Winsor III, and from Winsor III to Winsor II were determined using a water bath. Alkanes with different alkane carbon numbers (octane, decane, dodecane and hexadecane) were used to establish a linear correlation curve between EACN and the PIT, which is the average of the transitions from Winsor I to Winsor III, and from Winsor III to Winsor II, respectively. EACNmix was then calculated based on the linear relationship and the measured PIT for systems containing different perfume ingredients. The EACN of the pure perfume ingredient was calculated based on the molar ratio of the tested PRMs in the oil phase using following equation: […]
# wherein n and nref are the molar fractions of tested perfume ingredient and the reference ingredient (i.e., isopropyl myristate) in the oil phase, respectively.
# [4] = tested on: E. coli ATCC 10536; experiment: Bacterial contact time (BCT) test of perfume ingredients in 20% ethanol solution (EN-1276 based); format: cell-based, Escherichia coli; conditions: 20% EtOH, 45 s
# Protocol: Bacterial suspensions of E. coli ATCC 10536 were prepared for antimicrobial testing as follows. Stock cultures stored at -80° C. were sub-cultured onto Tryptic Soy Agar (TSA) plate, and incubated at 37° C. for 24 h to obtain single colonies. Single colonies of the primary cultures were streaked onto TSA plates and incubated at 37° C. for 24 h to prepare the secondary cultures. Single colonies of secondary cultures were inoculated into 50 mL of Tryptic Soy broth (TSB), incubated at 37° C. 180 rpm for 18 h. Aliquots (0.5 ml) of the 18 h culture were inoculated into 50 ml of fresh TSB, and incubated at 37° C. 180 rpm for 2- 3 hours. When the OD600 nm value of the broth reached 1-2, cells were harvested by centrifugation at 5,000 rpm for 10 min, and then resuspended in the same fresh broth media to achieve the target level of 1-5 × 10^8 colony forming unit (CFU)/mL. This suspension was used for further antimicrobial tests.
# Unless indicated otherwise, log reduction testing according to the present invention is determined in accordance with the following method.
# Bacterial contact time (BCT) test based on European standard EN-1276 was used to determine dose dependent bactericidal activity of perfume ingredients in 20% ethanol solutions.
# Perfume ingredients of various concentrations (doses) were prepared in 40% ethanol solutions. Eleven replicates of each sample were added into 96-well microtiter plates (120 µl per well) in column 1-11 of one row, with row B as the control sample of the ethanol solution. Then, 120 µl of cell suspension at a concentration of approximately 1-5 × 10^8 CFU/ML (as prepared above) were added to each well of the microtiter plate. A specified contact time (45 s) was allowed for target bacterial strains. At the end of the contact time, serial dilutions were prepared in 96 well plates with growth media: 3 times of 1 in 10 dilutions and followed by 17 times of 1 in 2 dilutions. Each plate was sealed and incubated at 37° C. under agitation (180 rpm). After incubation, turbidity of the wells (OD 600 nm) was recorded by Tecan microplate reader. Turbid cells were regarded as positive growth of viable cells. The total number of viable cells (log CFU/mL) for each sample was calculated. And the log reduction for each test composition at the final concentration (dose) was calculated against the control sample of the 20% ethanol solution.
# Table 20 show the bactericidal dose related effect (log reduction) and calculated effect fraction of the Mixture C and compositions against E. coli ATCC 10536. Stock of compositions were prepared in 100% ethanol, then diluted in MilliQ water to obtain 2 × final concentration in 40% ethanol. BCT tests were conducted on samples against E. coli for a contact time of 45 s.
# [5] = n-octanol/water, HPLC method, read-out: Log P
# [6] = 0.5% perfume ingredient, CAPB 0.75%, contact 45 s
# [7] = 0.5% perfume ingredient, Base 1: SLES 1.875%, CAPB 0.625%, contact 45 s, read-out: Log reduction in Base 1 (Log CFU/mL)
# [8] = model base 1, table by functional group, read-out: Log reduction in Base 1 (Log CFU/mL)
# [9] = 0.5% perfume ingredient, Base 1: SLES 1.875%, CAPB 0.625%, contact 45 s
# [10] = 0.5% perfume ingredient, Base 2: SLES 2.25%, CAPB 0.75%, contact 45 s
# [11] = model base 1, table by functional group
# [12] = read-out: Log reduction in Base 1 (Log CFU/mL)
compound,measurement,setting,value
CCCCCCC1CCC(=O)O1 (racemic) [(+-)-4-decanolide],chromatographic logP,[1]; [5],3.02
same,Log reduction (Log CFU/mL) Base 3,[2]; [6],0.6 Log CFU/mL
same,Log reduction (Log CFU/mL) Base 4,[2]; [6],0.25 Log CFU/mL
same,log reduction at 0.5 %,[2]; [7],0.2 ± 0.3
same,log reduction at 0.5 %,"[2]; 0.5% perfume ingredient, Base 2: SLES 2.25%, CAPB 0.75%, contact 45 s, read-out: Log reduction (Log CFU/mL) Base 2",0
same,EACN,[3],-4.96
OC/C=C/c1ccccc1 [(2E)-3-phenyl-2-propen-1-ol],chromatographic logP,[1],1.79
same,log reduction at 0.5 %,[2]; [7],0.1
same,EACN,[3],< -28.19
C=CCc1ccc(O)c(OC)c1 [2-methoxy-4-(2-propen-1-yl)phenol],chromatographic logP,[1]; [5],2.14
same,log reduction at 0.5 %,[2]; [7],0.2
same,EACN,[3],-31.24
C/C(C=O)=C\c1ccccc1 [(2E)-2-methyl-3-phenyl-2-propenal],chromatographic logP,[1],2.56
same,log reduction at 0.5 %,[2]; [8],3.7
same,EACN,[3],-12.17
Cc1ccc(O)cc1 [4-methylphenol],chromatographic logP,[1],1.52
same,log reduction at 0.5 %,[2]; [7],0.1
same,EACN,[3],<-21.95
"C=C(C)[C@@H]1CC=C(CO)CC1 [(-)-(S)-1,8-P-menthadien-7-ol]",Log P,[1],2.68
same,Log reduction in Base 1 (Log CFU/mL),[2]; [9],4.2 ± 0.1 Log CFU/mL
same,Log reduction (Log CFU/mL) Base 2,[2]; [10],0 Log CFU/mL
same,Log reduction (Log CFU/mL) Base 3,[2]; [6],1.4 Log CFU/mL
same,Log reduction (Log CFU/mL) Base 4,[2]; [6],2.2 Log CFU/mL
same,Log reduction in Base 1 (Log CFU/mL),[2]; [11],4.2 Log CFU/mL
same,EACN,[3],-30.83
Cc1ccc(C(C)C)c(O)c1 [2-isopropyl-5-methylphenol],chromatographic logP,[1],2.57
same,Effect fraction,[4]; dose 0.025% w/v,0.120
same,Log reduction,[4]; dose 0.025% w/v,0.887
same,Effect fraction,[4]; dose 0.030% w/v,0.300
same,Log reduction,[4]; dose 0.030% w/v,2.140
same,Effect fraction,[4]; dose 0.035% w/v,0.470
same,Log reduction,[4]; dose 0.035% w/v,3.344
same,Effect fraction,[4]; dose 0.040% w/v,0.690
same,Log reduction,[4]; dose 0.040% w/v,4.987
same,Effect fraction,[4]; dose 0.045% w/v,0.890
same,Log reduction,[4]; dose 0.045% w/v,6.387
same,log reduction at 0.5 %,[2]; [7],> 5.5
same,log reduction at 0.5 %,[2]; [8],> 5.5
same,EACN,[3],-43.68
Cc1ccc(C(C)C)cc1O [5-isopropyl-2-methylphenol],chromatographic logP,[1]; [5],2.52
same,Effect fraction,[4]; dose 0.030% w/v,0.090
same,Log reduction,[4]; dose 0.030% w/v,0.660
same,Effect fraction,[4]; dose 0.035% w/v,0.250
same,Log reduction,[4]; dose 0.035% w/v,1.812
same,Effect fraction,[4]; dose 0.040% w/v,0.610
same,Log reduction,[4]; dose 0.040% w/v,4.379
same,Effect fraction,[4]; dose 0.045% w/v,0.830
same,Log reduction,[4]; dose 0.045% w/v,5.960
same,Effect fraction,[4]; dose 0.050% w/v,0.970
same,Log reduction,[4]; dose 0.050% w/v,6.960
same,log reduction at 0.5 %,[2]; [12],5.3
same,Log reduction in Base 1 (Log CFU/mL),[2]; [11],5.3 Log CFU/mL
same,EACN,[3],-43.89
c1ccc2[nH]ccc2c1 [indole],chromatographic logP,[1]; [5],1.74
same,log reduction at 0.5 %,[2]; [12],1.9
same,EACN,[3],<-24.93
"2 /3 //4-(5,5,6-trimethylbicyclo[2.2.1]hept-2-yl)-1-cyclohexanol(A/B/C) + 2-(1,7,7-trimethylbicyclo[2.2.1]hept-2-yl)-1-cyclohexanol (D)",Log P,[1],5.23
same,Log reduction in Base 1 (Log CFU/mL),[2]; [9],0.4 Log CFU/mL
same,Log reduction (Log CFU/mL) Base 2,[2]; [10],-1.0 Log CFU/mL
same,Log reduction (Log CFU/mL) Base 3,[2]; [6],Insoluble
same,Log reduction (Log CFU/mL) Base 4,[2]; [6],-0.2 Log CFU/mL
same,EACN,[3],-16.52
CC(C)c1ccc(CO)cc1 [4-isopropyl-1-benzenemethanol],chromatographic logP,[1],2.23
same,log reduction at 0.5 %,[2]; [7],1.3
same,EACN,[3],-36.04
CC(C)(O)Cc1ccccc1 [2-methyl-1-phenyl-2-propanol],chromatographic logP,[1]; [5],1.84
same,log reduction at 0.5 %,[2]; [7],-0.1
same,EACN,[3],-17.89
CC/C(CC(C)CC)=N/O (racemic) [(+-)-(3Z)-5-methyl-3-heptanone oxime OR (+-)-(3E)-5-methyl-3-heptanone oxime],Log P,[1],2.45
same,Log reduction in Base 1 (Log CFU/mL),[2]; [11],3.3 Log CFU/mL
same,EACN,[3],-13.67
O=C/C=C/c1ccccc1 [(E)-3-Phenyl-2-propenal],chromatographic logP,[1],1.5
same,log reduction at 0.5 %,[2]; [7],> 3
same,log reduction at 0.5 %,[2]; [8],5.1
same,EACN,[3],-13.35
CCC/C=C/CO [(2E)-2-hexen-1-ol],chromatographic logP,[1],1.73
same,log reduction at 0.5 %,[2]; [7],-0.2
same,EACN,[3],-21.91

# Reference: patent US20230105693A1, “ANTIMICROBIAL COMPOSITIONS” (Firmenich SA, priority 2020, published 2023)
